Assay results taken from US10047051B2, “Substituted pyridines and method of use” (AbbVie S.á{acute over (.)}r.l., priority 2015, dated 2018).

Tests used:
Assay type in all cases: cell-based
CFTR ΔF508 mutant = molecular target: T1, CFTR ΔF508 mutant (Homo sapiens, UniProt P13569, DEL508-508); test: YFP-halide influx assay for the CFTR-ΔF508 mutation (CFBE41o- cells); settings: forskolin 10.67 μM; for EC50: from (1−F/F0) vs concentration plot
T1 construct: expressed in transfected cells; host or cells: CFBE41o- cells, adenoviral transduction
T1 sequence (P13569 with tags, fused parts or gaps DEL508-508): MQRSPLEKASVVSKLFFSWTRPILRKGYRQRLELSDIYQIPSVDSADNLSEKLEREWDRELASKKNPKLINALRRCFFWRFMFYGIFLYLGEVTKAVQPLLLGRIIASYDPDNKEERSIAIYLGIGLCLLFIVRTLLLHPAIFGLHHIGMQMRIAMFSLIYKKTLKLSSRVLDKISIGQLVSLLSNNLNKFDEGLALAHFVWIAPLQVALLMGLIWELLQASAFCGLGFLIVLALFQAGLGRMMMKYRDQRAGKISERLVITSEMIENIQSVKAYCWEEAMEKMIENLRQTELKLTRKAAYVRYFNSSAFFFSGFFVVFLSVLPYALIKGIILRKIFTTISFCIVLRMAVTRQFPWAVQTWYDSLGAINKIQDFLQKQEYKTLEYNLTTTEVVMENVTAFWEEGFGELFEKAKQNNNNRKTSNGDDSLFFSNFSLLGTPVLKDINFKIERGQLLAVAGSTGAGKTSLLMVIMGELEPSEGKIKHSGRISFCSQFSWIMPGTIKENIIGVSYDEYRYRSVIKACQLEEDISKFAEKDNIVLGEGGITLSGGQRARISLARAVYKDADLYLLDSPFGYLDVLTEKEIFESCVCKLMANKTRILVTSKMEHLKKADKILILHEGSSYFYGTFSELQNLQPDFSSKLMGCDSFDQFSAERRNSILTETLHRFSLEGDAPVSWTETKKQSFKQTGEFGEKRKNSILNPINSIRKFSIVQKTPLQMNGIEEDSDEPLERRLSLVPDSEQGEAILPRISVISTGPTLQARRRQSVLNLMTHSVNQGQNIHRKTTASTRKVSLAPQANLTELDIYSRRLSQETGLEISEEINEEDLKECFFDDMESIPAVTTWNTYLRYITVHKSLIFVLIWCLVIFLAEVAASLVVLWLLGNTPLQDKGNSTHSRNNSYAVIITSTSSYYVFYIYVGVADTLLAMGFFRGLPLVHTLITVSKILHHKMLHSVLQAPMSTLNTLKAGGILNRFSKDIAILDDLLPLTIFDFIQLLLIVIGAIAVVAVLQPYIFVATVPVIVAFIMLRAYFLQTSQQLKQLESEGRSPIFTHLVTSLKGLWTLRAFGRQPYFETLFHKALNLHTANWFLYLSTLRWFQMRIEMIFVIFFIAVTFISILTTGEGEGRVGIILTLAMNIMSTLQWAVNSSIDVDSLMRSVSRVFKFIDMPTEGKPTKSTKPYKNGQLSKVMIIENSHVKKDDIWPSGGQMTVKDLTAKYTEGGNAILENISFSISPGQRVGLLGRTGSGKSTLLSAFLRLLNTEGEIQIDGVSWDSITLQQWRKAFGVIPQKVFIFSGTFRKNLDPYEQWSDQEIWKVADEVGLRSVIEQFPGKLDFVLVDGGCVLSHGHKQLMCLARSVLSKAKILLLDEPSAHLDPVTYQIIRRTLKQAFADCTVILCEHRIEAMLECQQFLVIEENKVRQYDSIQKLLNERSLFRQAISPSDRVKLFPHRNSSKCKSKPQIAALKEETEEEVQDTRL
In short: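 CFBE41o- cells transduced with adenovirus expressing CFTR ΔF508 and halide-sensitive YFP H148Q/I152L/F47L, then held 24 h at 27° C or with a CFTR modulator 24 h at 37° C. Iodide-induced quench recorded 2 min; EC50 from (1−F/F0) at 36 s versus concentration.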

CFTR G551D mutant = molecular target: T2, CFTR G551D mutant (Homo sapiens, UniProt P13569, G551D); test: YFP-halide influx assay for the CFTR-G551D mutation (HEK293 cells); settings: forskolin 10.67 μM
T2 construct: expressed in transfected cells; host or cells: HEK293 cells, reverse transfection with plasmids
T2 sequence (P13569 whole entry G551D): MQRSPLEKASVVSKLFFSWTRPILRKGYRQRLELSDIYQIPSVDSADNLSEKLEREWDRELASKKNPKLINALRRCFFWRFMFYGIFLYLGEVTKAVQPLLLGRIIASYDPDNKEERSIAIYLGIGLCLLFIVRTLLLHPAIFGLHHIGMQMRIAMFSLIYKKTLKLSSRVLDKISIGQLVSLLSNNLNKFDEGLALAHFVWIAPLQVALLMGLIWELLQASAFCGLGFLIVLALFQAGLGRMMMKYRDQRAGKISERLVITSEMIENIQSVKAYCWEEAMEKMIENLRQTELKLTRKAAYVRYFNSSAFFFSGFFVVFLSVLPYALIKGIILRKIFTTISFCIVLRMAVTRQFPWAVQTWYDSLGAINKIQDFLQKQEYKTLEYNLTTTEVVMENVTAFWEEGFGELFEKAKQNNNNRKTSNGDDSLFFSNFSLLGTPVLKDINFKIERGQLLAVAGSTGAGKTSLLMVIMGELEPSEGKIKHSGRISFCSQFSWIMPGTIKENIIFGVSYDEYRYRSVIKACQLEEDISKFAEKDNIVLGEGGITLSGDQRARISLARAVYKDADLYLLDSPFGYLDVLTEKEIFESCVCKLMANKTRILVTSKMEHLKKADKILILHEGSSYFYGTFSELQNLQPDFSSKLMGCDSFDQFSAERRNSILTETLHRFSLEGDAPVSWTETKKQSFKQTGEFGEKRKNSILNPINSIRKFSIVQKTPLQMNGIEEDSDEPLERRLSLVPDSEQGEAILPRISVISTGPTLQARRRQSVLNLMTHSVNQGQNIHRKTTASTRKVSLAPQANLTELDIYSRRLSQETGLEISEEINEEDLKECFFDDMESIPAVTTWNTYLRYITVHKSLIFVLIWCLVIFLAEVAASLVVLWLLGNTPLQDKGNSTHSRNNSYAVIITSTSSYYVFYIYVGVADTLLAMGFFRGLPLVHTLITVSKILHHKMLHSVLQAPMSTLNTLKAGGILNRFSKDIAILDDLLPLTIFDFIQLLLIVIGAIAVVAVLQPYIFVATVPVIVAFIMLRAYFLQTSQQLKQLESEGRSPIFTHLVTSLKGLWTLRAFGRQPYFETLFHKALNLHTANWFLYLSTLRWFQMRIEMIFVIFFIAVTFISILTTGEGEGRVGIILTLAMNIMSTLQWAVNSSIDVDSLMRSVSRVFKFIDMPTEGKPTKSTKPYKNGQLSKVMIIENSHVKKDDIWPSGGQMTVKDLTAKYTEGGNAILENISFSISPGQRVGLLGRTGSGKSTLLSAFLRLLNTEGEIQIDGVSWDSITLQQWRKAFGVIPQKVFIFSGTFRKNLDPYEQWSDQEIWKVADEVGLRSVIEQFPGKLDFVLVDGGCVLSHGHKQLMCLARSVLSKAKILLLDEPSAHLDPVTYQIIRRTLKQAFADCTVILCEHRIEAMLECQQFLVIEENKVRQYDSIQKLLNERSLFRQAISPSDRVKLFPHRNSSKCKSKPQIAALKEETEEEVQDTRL
In short: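 HEK293 cells reverse-transfected with CFTR G551D and halide-sensitive YFP (H148Q/I152L/F47L), expressed 24 h at 37 °C. YFP fluorescence quenching recorded for 7 s after I⁻ injection. Response = 1−F/F0; EC50 derived from 1−F/F0 vs compound concentration.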

CFTR G551D/ΔF508 = molecular target: T3, CFTR G551D/ΔF508 (Homo sapiens, UniProt P13569, G551D); test: TECC assay, primary bronchial epithelial cells, CFTR G551D/ΔF508; settings: primary bronchial epithelial cells heterozygous G551D/ΔF508, acute mode, increase in Isc after forskolin
T3 construct: host or cells: primary human bronchial epithelial cells from CF patients heterozygous G551D/ΔF508, no corrector pre-treatment
T3 sequence (P13569 whole entry F508del/G551D): as the sequence (P13569 with tags, fused parts or gaps DEL508-508) above, with G550D counted along it
Method: (§1) The TECC (Tranepithelial Clamp Circuit, EP-design) assay measures the functionality of the cystic fibrosis Transmembrane Conductance regulator (CFTR) by measuring the short circuit current (Isc) generated over the basolateral and apical membrane of lung epithelial cells. In TECC the transepithelial potential PD and transepithelial resistance (Rt) are measured in an open circuit and transformed to Isc using Ohm's law. 24 Wells can be measured simultaneously allowing a higher throughput compared to Ussing chambers.
(§2) For this purpose, bronchial epithelial cells isolated from CF patients homozygous for the CFTR ΔF508 mutation (hAEC-CF, Epithelix) are plated on type IV collagen-coated Transwell® supports (Costar). Human airway epithelia are generated by provision of an air-liquid interface for 21 days to form well-differentiated polarized cultures that resemble in vivo pseudo-stratified ciliated epithelium (Fulcher, M. L., Gabriel, S., Burns, K. A., Yankaskas, J. R., Randell, S. H., 2005. Well-differentiated human airway epithelial cell cultures. Methods Mol. Med. 107, 183-206). In the case of the homozygous ΔF508 CFTR samples, the differentiated cells are treated with 3 μM VX809 (2626 South Loop West, Suite 225, Houston, Tex. 77054 USA, Cat n# S1565) to allow sufficient expression of properly folded CFTR protein on the membrane (48 hours basolateral treatment and 24 hours apical treatment), prior to electrophysiological recordings. For heterozygous G551D/ΔF508, differentiated cells are used as such for the recordings.
(§3) Information on the compounds can be retrieved on the homozygous ΔF508 CFTR samples looking at increased CFTR activity when compounds are added in an acute mode or in a chronic mode. On G551D/ΔF508 CFTR heterozygous samples compounds are added in an acute mode to the differentiated cells.
(§4) For the acute mode, for electrophysiological recording, the human airway epithelia are mounted in the TECC heating plate for electrophysiological measurement and kept at 37° C. The epithelia are bathed in a NaCl-Ringer solution (120 mM NaCl, 25 mM NaHCO3, 1.2 mM CaCl2, 1.2 mM MgCl2, 0.8 mM KH2PO4, 0.8 mM K2HPO4, pH 7.4, 5 mM glucose) on both the basolateral and apical sides. Apical amiloride is used to inhibit the endogenous ENaC currents while forkolin is applied on both apical and basolateral side to stimulate CFTR. After forskolin triggering, compounds are added on both sides to test their potential for increasing CFTR gating. Measurements are done during a 20 minute timeframe with recordings every 2 minutes. The increase in Isc is used as a measure for the increased CFTR activity, EC50 values can be generated by measuring impact of different concentrations of compound on Isc on primary cells, for this purpose each transwell is treated with a different compound concentration. Inh-172, an inhibitor specific for CFTR, is used to test the specificity of the tested compounds.
When subjected to this protocol, the following values were obtained. The difference between ΔIsc measured as DMSO (baseline), and the ΔIsc measured with the compound tested.

CFTR ΔF508 = molecular target: T4, CFTR ΔF508 (Homo sapiens, UniProt P13569, DEL508-508); test: TECC assay, primary bronchial epithelial cells, CFTR ΔF508; settings: primary bronchial epithelial cells of CF patients homozygous for CFTR ΔF508, treated with 3 μM VX809, increase in Isc after forskolin
T4 construct: host or cells: primary human bronchial epithelial cells from CF patients homozygous for ΔF508, pre-treated with VX809
T4 sequence (P13569 with tags, fused parts or gaps DEL508-508): as the sequence (P13569 with tags, fused parts or gaps DEL508-508) above
Method: as §1, §2, §3, §4
For the chronic mode, the differentiated cells are treated with 3 μM VX809 (2626 South Loop West, Suite 225, Houston, Tex. 77054 USA, Cat n# S1565) and potentiator compounds at different concentrations (48 hours basolateral treatment and 24 hours apical treatment), prior to electrophysiological recordings. For electrophysiological recording, the human airway epithelia are mounted in the TECC heating plate for electrophysiological measurement and kept at 37° C. The epithelia are bathed in a NaCl-Ringer solution (120 mM NaCl, 25 mM NaHCO3, 1.2 mM CaCl2, 1.2 mM MgCl2, 0.8 mM KH2PO4, 0.8 mM K2HPO4, pH 7.4, 5 mM glucose) on both the basolateral and apical sides. Apical amiloride is used to inhibit the endogenous ENaC currents while forkolin is applied on both apical and basolateral side to stimulate CFTR. Measurements are done during a 20 minute timeframe with recordings every 2 minutes. […]

CFTR-G178R = molecular target: T5, CFTR-G178R (Homo sapiens, UniProt P13569, G178R); test: YFP-halide influx assay for the CFTR-G178R
T5 construct: expressed in transfected cells
T5 sequence (P13569 whole entry G178R): as the sequence (P13569 whole entry G551D) above, with G178R, D551G counted along it
Description: (§5) The YFP halide influx assay measured the functionality of the cystic fibrosis Transmembrane Conductance regulator (CFTR) channels. The assay was used to evaluate the capacity of compounds to increase the channel opening of existing mutant CFTR channels in the membrane. It makes use of the observation that the yellow fluorescent protein (YFP) variant YFP H148Q, I152L, F47L has its fluorescence substantially quenched by halide ions like Cl^− and I^− (Galietta, L. J. V., Haggie, P. M., Verkman, A. S., 2001. Green fluorescent protein-based halide indicators with improved chloride and iodide affinities. FEBS Lett. 499, 220-224. doi:10.1016/S0014-5793(01)02561-3).
(§6) For this purpose, HEK293-cells were seeded in 96 well plates. During seeding, the cells were reverse-transfected with plasmid vectors that direct the expression of the CFTR G551D mutant and of the YFP reporter. Cells were incubated at 37° C., 5% CO2 for 24 hours so as to allow for sufficient expression of the CFTR protein.
(§7) The I^−-induced quenching of fluorescence was recorded immediately after injection of I^− for 7 seconds. The capacity of a compound to increase the channel opening was directly correlated with the decrease in fluorescence, and was expressed as (1−(fluorescence after 7 seconds (F)/fluorescence before injection (F0))) and an EC50 was derived from a (1−F/F0) vs compound concentration plot.
(§8) Similar YHA assays were developed for other channel gating defective or channel conductance defective CFTR mutants to determine effect of compound on channel activity. Examples of mutants are G178R, G1349D, S549N, R117H, R334W. This assay is also used for additional class I CFTR mutants, including G542X, W1282X; class II mutants including N1303K, and for class III mutants including S1251N; or wild-type CFTR.

CFTR-G1349D = molecular target: T6, CFTR-G1349D (Homo sapiens, UniProt P13569, G1349D); test: YFP-halide influx assay for the CFTR-G1349D
T6 construct: expressed in transfected cells
T6 sequence (P13569 whole entry G1349D): as the sequence (P13569 whole entry G551D) above, with D551G, G1349D counted along it
In short: (§9)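 HEK293 cells reverse-transfected with a CFTR mutant and YFP H148Q/I152L/F47L halide sensor, expressed 24 h at 37° C. Fluorescence quenching followed for 7 s after I⁻ injection; activity expressed as 1−F/F0, with EC50 fitted from 1−F/F0 versus compound concentration.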

CFTR-S549N = molecular target: T7, CFTR-S549N (Homo sapiens, UniProt P13569, S549N); test: YFP-halide influx assay for the CFTR-S549N; set-up: % Activation: concentration or dose not given beside the values
T7 construct: expressed in transfected cells
T7 sequence (P13569 whole entry S549N): as the sequence (P13569 whole entry G551D) above, with S549N, D551G counted along it
Description: as §5, §6, §7, §8

CFTR-R117H = molecular target: T8, CFTR-R117H (Homo sapiens, UniProt P13569, R117H); test: YFP-halide influx assay for the CFTR-R117H
T8 construct: expressed in transfected cells
T8 sequence (P13569 whole entry R117H): as the sequence (P13569 whole entry G551D) above, with R117H, D551G counted along it
In short: as §9

G551D CFTR = G551D CFTR (Homo sapiens, UniProt P13569, G551D); test: TECC assay, FRT-CFTR G551D protocol; settings: FRT cells stably transfected with G551D CFTR, high expression cells, increase in Isc after forskolin
G551D CFTR, sequence (P13569 whole entry G551D): as the sequence (P13569 whole entry G551D) above
Method: For G551D recordings, Fischer Rat Thyroid (FRT) cells stably transfected with G551D CFTR (a low CFTR-G551D expressing cell line and a high expressing CFTR-G551D cell line from Rosalind Franklin University of Medicine and Science, North Chicago, Ill.) are plated on Transwell® supports (Costar 6.5 mm diameter, 0.4 μm pore size). The cells are grown for 8-10 days under liquid-liquid interface conditions prior to electrophysiological readings. For electrophysiological recording, the FRT-G551D cells are mounted in the TECC heating plate for electrophysiological measurement and kept at 37° C. The epithelia are bathed in HEPES buffered culturing medium without FBS on both the basolateral and apical sides. Apical amiloride is used to inhibit the endogenous ENaC currents while forkolin is applied on both apical and basolateral side to stimulate CFTR. After forskolin triggering, compounds are added on both sides to test their potential for increasing CFTR gating. Measurements are done during a 10 minute timeframe with recordings every 2 minutes. The increase in Isc is used as a measure for the increased CFTR activity, EC50 values can be generated by measuring impact of different concentrations of compound on Isc on the cells, for this purpose each transwell is treated with a different compound concentration. Inh-172, an inhibitor specific for CFTR, is used to test the specificity of the tested compounds.

Compound	% Activation (CFTR ΔF508 mutant) [%]	EC50 (CFTR ΔF508 mutant) [nM]	% Activation (CFTR G551D mutant) [%]	EC50 (CFTR G551D mutant) [nM]	EC50 (CFTR G551D/ΔF508) [nM]	EC50 (CFTR ΔF508) [nM]	% Activation (CFTR-G178R) [%]	EC50 (CFTR-G178R) [nM]	% Activation (CFTR-G1349D) [%]	EC50 (CFTR-G1349D) [nM]	% Activation (CFTR-S549N) [%]	EC50 (CFTR-S549N) [nM]	% Activation (CFTR-R117H) [%]	EC50 (CFTR-R117H) [nM]	EC50 (G551D CFTR) [µM]
Nc1cc(S(=O)(=O)c2ccccc2)cnc1C(=O)NC[C@@H](O)C(F)(F)F [Compound 253, 3-amino-5-(phenylsulfonyl)-N-[(2R)-3,3,3-trifluoro-2-hydroxypropyl]pyridine-2-carboxamide]	102.6	6	51.2	1070	1440										
CC(O)(CNC(=O)c1ncc(S(=O)(=O)c2ccc(F)cc2)cc1N)C(F)(F)F (stereo not shown) [Compound 19, 3-amino-5-[(4-fluorophenyl)sulfonyl]-N-(3,3,3-trifluoro-2-hydroxy-2-methylpropyl)pyridine-2-carboxamide]	113.3	16.4	63.2	1080			89.9	561	84.3	659	79.6	1610	90.8	186	5.48
CC1(C)CN(C(=O)c2ncc(S(=O)(=O)c3ccc(OC(F)(F)F)cc3)cc2N)C1 [Compound 59, (3-amino-5-{[4-(trifluoromethoxy)phenyl]sulfonyl}pyridin-2-yl)(3,3-dimethylazetidin-1-yl)methanone]	111.0	34.3	84.6	1630		50.4									

Further lines, results first:

% Activation (CFTR ΔF508 mutant) [%]	EC50 (CFTR ΔF508 mutant) [nM]	% Activation (CFTR G551D mutant) [%]	EC50 (CFTR G551D mutant) [nM]	EC50 (CFTR G551D/ΔF508) [nM]	EC50 (CFTR ΔF508) [nM]	% Activation (CFTR-G178R) [%]	EC50 (CFTR-G178R) [nM]	% Activation (CFTR-G1349D) [%]	EC50 (CFTR-G1349D) [nM]	% Activation (CFTR-S549N) [%]	EC50 (CFTR-S549N) [nM]	% Activation (CFTR-R117H) [%]	EC50 (CFTR-R117H) [nM]	EC50 (G551D CFTR) [µM]	Compound
102.0	2.5	99.7	215	62.2											CC(C)OC[C@H](O)CNC(=O)c1ncc(S(=O)(=O)c2ccc(C(F)(F)F)cc2)cc1N [Compound 252, 3-amino-N-[(2R)-2-hydroxy-3-(propan-2-yloxy)propyl]-5-{[4-(trifluoromethyl)phenyl]sulfonyl}pyridine-2-carboxamide]
103.0	61.6	86.0	1110		91.3										CCOCCOCC(O)CNC(=O)c1ncc(S(=O)(=O)c2ccc(OC(F)(F)F)cc2)cc1N (stereo not shown) [Compound 38, 3-amino-N-[3-(2-ethoxyethoxy)-2-hydroxypropyl]-5-{[4-(trifluoromethoxy)phenyl]sulfonyl}pyridine-2-carboxamide]
109.5	7.6	91.7	796	358											COC[C@H](O)CNC(=O)c1ncc(S(=O)(=O)c2ccc(C(F)(F)F)cc2F)cc1N [Compound 99, 3-amino-5-{[2-fluoro-4-(trifluoromethyl)phenyl]sulfonyl}-N-[(2R)-2-hydroxy-3-methoxypropyl]pyridine-2-carboxamide]
108.0	19.1	70.2	1260		112										COCC(O)CNC(=O)c1ncc(S(=O)(=O)c2ccc(OC(F)(F)F)cc2F)cc1N (stereo not shown) [Compound 71, 3-amino-5-{[2-fluoro-4-(trifluoromethoxy)phenyl]sulfonyl}-N-(2-hydroxy-3-methoxypropyl)pyridine-2-carboxamide]
